Assay results taken from ChEMBL document CHEMBL1201862, “PubChem BioAssay data set” (2004).
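Cells were grown in 96-well plates and exposed to each compound for 48 hours at five concentrations; endpoints were interpolated linearly between bracketing concentrations, or set to the highest concentration if not reached. Abbreviation: GI50, concentration required for 50% inhibition of growth.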 Active and inactive are the calls of the source. Cut-off read from the data, not from the text of the source: active = GI50 up to about 1.1 µM and inactive = higher.

How the values were obtained:
Test in all cases: NCI tumour cell line growth inhibition, 48 h
OVCAR-4 = test system: OVCAR-4
OVCAR-3 = test system: OVCAR-3
HL-60 = test system: HL-60
SN12C = test system: SN12C
SF-295 = test system: SF-295
HT-29 = test system: HT-29
SF-268 = test system: SF-268
NCI-H460 = test system: NCI-H460
CAKI-1 = test system: CAKI-1
M14 = test system: M14
LOX IMVI = test system: LOX IMVI
ACHN = test system: ACHN
A549 = test system: A549
UO-31 = test system: UO-31
NCI-H23 = test system: NCI-H23
NCI/ADR-RES = test system: NCI/ADR-RES
MCF7 = test system: MCF7
MDA-MB-435 = test system: MDA-MB-435
MDA-MB-231 = test system: MDA-MB-231

SMILES | GI50 (OVCAR-4) | GI50 (OVCAR-3) | GI50 (HL-60) | GI50 (SN12C) | GI50 (SF-295) | GI50 (HT-29) | GI50 (SF-268) | GI50 (NCI-H460) | GI50 (CAKI-1) | GI50 (M14) | GI50 (LOX IMVI) | GI50 (ACHN) | GI50 (A549) | GI50 (UO-31) | GI50 (NCI-H23) | GI50 (NCI/ADR-RES) | GI50 (MCF7) | GI50 (MDA-MB-435) | GI50 (MDA-MB-231)
CCN(CC)C(=S)N/N=C(\C)c1ccccc1O | > 100 µM (inactive) | 34.3 µM (inactive) | 22.6 µM (inactive) | 20.9 µM (inactive) | 15.5 µM (inactive) | 19.5 µM (inactive) | 17.9 µM (inactive) | 4.84 µM (inactive) | 18.4 µM (inactive) | 17.5 µM (inactive) | 15.5 µM (inactive) | 14.5 µM (inactive) | 11.4 µM (inactive) | 14.3 µM (inactive) | 25 µM (inactive) | – | – | – | –
OCCN(CCO)c1cccc(N(CCO)CCO)c1 | > 100 µM (inactive) | > 100 µM (inactive) | > 100 µM (inactive) | – | > 100 µM (inactive) | – | > 100 µM (inactive) | > 100 µM (inactive) | > 100 µM (inactive) | > 100 µM (inactive) | > 100 µM (inactive) | > 100 µM (inactive) | > 100 µM (inactive) | 28.6 µM (inactive) | > 100 µM (inactive) | – | – | – | –
O=C(CC1C(=O)Nc2ccccc2[S+]1[O-])Nc1ccc(Cl)cc1 (configuration not stated) | 49 µM (inactive) | > 100 µM (inactive) | 46.9 µM (inactive) | 72.4 µM (inactive) | > 100 µM (inactive) | > 100 µM (inactive) | 57.5 µM (inactive) | > 100 µM (inactive) | > 100 µM (inactive) | > 100 µM (inactive) | > 100 µM (inactive) | 79.3 µM (inactive) | > 100 µM (inactive) | 35.1 µM (inactive) | 35.2 µM (inactive) | – | – | – | –
Cc1ccc2nc3c(C)cc(=O)cc-3sc2c1 | 16.7 µM (inactive) | 22 µM (inactive) | 2.45 µM (inactive) | 21.3 µM (inactive) | 31.5 µM (inactive) | 36.2 µM (inactive) | 25.6 µM (inactive) | 23.4 µM (inactive) | 19.3 µM (inactive) | 19.6 µM (inactive) | – | 17.7 µM (inactive) | 20.1 µM (inactive) | 32 µM (inactive) | 20.8 µM (inactive) | – | – | – | –
CC1(C)CC(=O)c2c(nc(SSc3nc4c(c(-c5ccccc5)c3C#N)C(=O)CC(C)(C)C4)c(C#N)c2-c2ccccc2)C1 | > 10 µM (inactive) | > 10 µM (inactive) | > 10 µM (inactive) | > 10 µM (inactive) | > 10 µM (inactive) | > 10 µM (inactive) | > 10 µM (inactive) | > 10 µM (inactive) | > 10 µM (inactive) | > 10 µM (inactive) | > 10 µM (inactive) | > 10 µM (inactive) | > 10 µM (inactive) | > 10 µM (inactive) | > 10 µM (inactive) | > 10 µM (inactive) | > 10 µM (inactive) | – | –
COC(=O)NC(=O)c1cn(C2OC(CO)C(O)C2O)c(=O)[nH]c1=O (configuration not stated) | > 100 µM (inactive) | > 100 µM (inactive) | > 100 µM (inactive) | > 100 µM (inactive) | > 100 µM (inactive) | > 100 µM (inactive) | > 100 µM (inactive) | > 100 µM (inactive) | > 100 µM (inactive) | > 100 µM (inactive) | > 100 µM (inactive) | > 100 µM (inactive) | > 100 µM (inactive) | > 100 µM (inactive) | > 100 µM (inactive) | – | – | – | –
NC(=O)c1ncn(C2OC(CO)C(O)C2O)c1O (configuration not stated) | > 100 µM (inactive) | 96.8 µM (inactive) | 50.2 µM (inactive) | > 100 µM (inactive) | > 100 µM (inactive) | 4.69 µM (inactive) | > 100 µM (inactive) | 53.7 µM (inactive) | 83.4 µM (inactive) | > 100 µM (inactive) | > 100 µM (inactive) | > 100 µM (inactive) | > 100 µM (inactive) | 61.9 µM (inactive) | – | – | – | – | –
O=C(N/C(=C\c1ccc([N+](=O)[O-])cc1)c1nc2c(O)nc(S)nc2[nH]1)c1ccccc1 | 99.5 µM (inactive) | > 100 µM (inactive) | – | > 100 µM (inactive) | > 100 µM (inactive) | > 100 µM (inactive) | > 100 µM (inactive) | – | > 100 µM (inactive) | > 100 µM (inactive) | – | > 100 µM (inactive) | > 100 µM (inactive) | 30.8 µM (inactive) | > 100 µM (inactive) | – | – | – | –
O=c1c2ccccc2c(=O)n2n1-c1cccc(c1)CSSCc1cccc-2c1 | > 10 µM (inactive) | > 10 µM (inactive) | – | > 10 µM (inactive) | 43.4 µM (inactive) | > 10 µM (inactive) | > 10 µM (inactive) | > 10 µM (inactive) | > 10 µM (inactive) | > 10 µM (inactive) | > 100 µM (inactive) | > 10 µM (inactive) | > 10 µM (inactive) | > 10 µM (inactive) | > 10 µM (inactive) | – | – | – | –
Nc1ccc(C(=O)N/C(=C\C=C\c2ccco2)c2nc3c4c(ccc3[nH]2)C(=O)c2ccccc2C4=O)cc1 | 52.4 µM (inactive) | 32.9 µM (inactive) | – | 29.4 µM (inactive) | 31.7 µM (inactive) | 49.7 µM (inactive) | 10.2 µM (inactive) | – | 24.6 µM (inactive) | 55 µM (inactive) | 25.5 µM (inactive) | 10.8 µM (inactive) | 21 µM (inactive) | 2.34 µM (inactive) | 41.5 µM (inactive) | – | – | – | –
CN(C)CCNC(=O)c1c2ccccc2cc2ccccc12 | 31 µM (inactive) | 93.8 µM (inactive) | 25.4 µM (inactive) | 34.4 µM (inactive) | 61.2 µM (inactive) | 39.1 µM (inactive) | 44.7 µM (inactive) | 18.1 µM (inactive) | – | 16.7 µM (inactive) | 13.5 µM (inactive) | 32.4 µM (inactive) | 34.6 µM (inactive) | 26.2 µM (inactive) | 41.4 µM (inactive) | – | – | – | –
c1ccc(C2=NN(c3ccccc3)C3(S2)SC(c2ccccc2)(c2ccccc2)c2ccccc23)cc1 (configuration not stated) | > 100 µM (inactive) | > 100 µM (inactive) | 0.804 µM (active) | > 100 µM (inactive) | > 100 µM (inactive) | > 100 µM (inactive) | > 100 µM (inactive) | > 100 µM (inactive) | > 100 µM (inactive) | > 100 µM (inactive) | > 100 µM (inactive) | > 100 µM (inactive) | > 100 µM (inactive) | > 100 µM (inactive) | > 100 µM (inactive) | – | – | – | –
CC(C)c1cccc(C(C)C)c1NC(=O)C(=O)Cc1nc2ccc([N+](=O)[O-])cc2nc1O | 64.3 µM (inactive) | > 100 µM (inactive) | > 100 µM (inactive) | – | > 100 µM (inactive) | > 100 µM (inactive) | – | 70.1 µM (inactive) | 75.3 µM (inactive) | 28.1 µM (inactive) | 23.2 µM (inactive) | 54.5 µM (inactive) | 53.6 µM (inactive) | > 100 µM (inactive) | 31.9 µM (inactive) | – | – | – | –
Cn1cnc2[nH]c(=O)[nH]c(=S)c21 | > 100 µM (inactive) | > 100 µM (inactive) | > 100 µM (inactive) | > 100 µM (inactive) | > 100 µM (inactive) | > 100 µM (inactive) | > 100 µM (inactive) | > 100 µM (inactive) | > 100 µM (inactive) | > 100 µM (inactive) | – | > 100 µM (inactive) | > 100 µM (inactive) | > 100 µM (inactive) | > 100 µM (inactive) | – | – | – | –
NNC(=O)C(=O)N/N=C(\CCC(=O)Nc1ccc(Cl)cc1)Cc1nc2ccccc2s1 | – | 18.2 µM (inactive) | 4.34 µM (inactive) | 34.6 µM (inactive) | 36.6 µM (inactive) | 44.8 µM (inactive) | 25.3 µM (inactive) | 28 µM (inactive) | 38.2 µM (inactive) | 19.7 µM (inactive) | 17.7 µM (inactive) | 26.1 µM (inactive) | 45.4 µM (inactive) | 11.9 µM (inactive) | 30.9 µM (inactive) | – | – | – | –
Cc1nc(N)sc1/N=N/c1cc(Cl)c([N+](=O)[O-])cc1Cl | – | 15.6 µM (inactive) | 22.9 µM (inactive) | 17.6 µM (inactive) | 23.9 µM (inactive) | 12.4 µM (inactive) | 29.9 µM (inactive) | 30 µM (inactive) | 27.4 µM (inactive) | 50.4 µM (inactive) | 16.9 µM (inactive) | 20.4 µM (inactive) | 12.8 µM (inactive) | 24.9 µM (inactive) | – | 20.6 µM (inactive) | 26.9 µM (inactive) | 19.4 µM (inactive) | 14.8 µM (inactive)
O=C1C(c2ccccc2)=C(c2ccccc2)C(c2ccc(Cc3ccc(C4=C(c5ccccc5)C(=O)C(c5ccccc5)=C4c4ccccc4)cc3)cc2)=C1c1ccccc1 | > 100 µM (inactive) | > 100 µM (inactive) | > 100 µM (inactive) | – | 69.5 µM (inactive) | > 100 µM (inactive) | > 100 µM (inactive) | > 100 µM (inactive) | > 100 µM (inactive) | – | > 100 µM (inactive) | – | > 100 µM (inactive) | > 100 µM (inactive) | > 100 µM (inactive) | – | – | – | –
CCCCCCCCCCCCOC(=N)N1CCOCC1 | 7.62 µM (inactive) | 14.9 µM (inactive) | 1.55 µM (inactive) | 4.39 µM (inactive) | 17 µM (inactive) | 1.82 µM (inactive) | 15 µM (inactive) | 15 µM (inactive) | 4.13 µM (inactive) | 3.95 µM (inactive) | 14.5 µM (inactive) | 14.2 µM (inactive) | 15.8 µM (inactive) | 13.5 µM (inactive) | 13.4 µM (inactive) | – | – | – | –
Cc1cc(NS(=O)(=O)c2ccc(/N=N/c3c(O)c(C(=O)O)cc4ccccc34)cc2)nc(C)n1 | > 100 µM (inactive) | > 100 µM (inactive) | > 100 µM (inactive) | – | > 100 µM (inactive) | > 100 µM (inactive) | > 100 µM (inactive) | > 100 µM (inactive) | > 100 µM (inactive) | > 100 µM (inactive) | – | > 100 µM (inactive) | > 100 µM (inactive) | > 100 µM (inactive) | – | > 100 µM (inactive) | > 100 µM (inactive) | > 100 µM (inactive) | > 100 µM (inactive)
